{"source": "the NIST ThermoML archive (doi:10.1016/j.jct.2012.06.014)", "experiment": "cn = amount concentration of the nth substance listed, in mol/dm3", "details": "298.15 K, 101 kPa, Liquid, Open capillary", "data": [{"smiles": "O=S(=O)([O-])[O-].O=S(=O)([O-])[O-].O=S(=O)([O-])[O-].[Fe+3].[Fe+3]", "note": "[ferric sulfate] + O", "values": [{"measurement": "binary diffusion coefficient", "setting": "c1 = 0.05", "value": "1.48e-09", "unit": "m2/s"}, {"measurement": "binary diffusion coefficient", "setting": "c1 = 0.06", "value": "1.45e-09", "unit": "m2/s"}, {"measurement": "binary diffusion coefficient", "setting": "c1 = 0.08", "value": "1.42e-09", "unit": "m2/s"}, {"measurement": "binary diffusion coefficient", "setting": "c1 = 0.1", "value": "1.41e-09", "unit": "m2/s"}, {"measurement": "binary diffusion coefficient", "setting": "c1 = 0.15", "value": "1.42e-09", "unit": "m2/s"}, {"measurement": "binary diffusion coefficient", "setting": "c1 = 0.2", "value": "1.48e-09", "unit": "m2/s"}]}]}
